Results reported in BigSolDB 2.1.

CC1(C)[C@@H](O)CC[C@]2(C)[C@H]3C(=O)C=C4[C@@H]5C[C@@](C)(C(=O)O)CC[C@]5(C)CC[C@@]4(C)[C@]3(C)CC[C@@H]12
Settings	solubility (mole fraction)
in 1,4-dioxane, 288.15 K	0.0269
in 1,4-dioxane, 293.15 K	0.028
in 1,4-dioxane, 298.15 K	0.0297
in 1,4-dioxane, 303.15 K	0.0315
in 1,4-dioxane, 308.15 K	0.0327
in 1,4-dioxane, 313.15 K	0.0337
in 1,4-dioxane, 318.15 K	0.0349
in 1,4-dioxane, 323.15 K	0.036
in DMF, 278.15 K	0.0467
in DMF, 283.15 K	0.0474
in DMF, 288.15 K	0.0515
in DMF, 293.15 K	0.0552
in DMF, 298.15 K	0.0576
in DMF, 303.15 K	0.0598
in DMF, 308.15 K	0.0643
in DMF, 313.15 K	0.0678
in DMF, 318.15 K	0.0716
in DMF, 323.15 K	0.0763
in THF, 278.15 K	0.0764
in THF, 283.15 K	0.077
in THF, 288.15 K	0.0774
in THF, 293.15 K	0.078
in THF, 298.15 K	0.0787
in THF, 303.15 K	0.0794
in THF, 308.15 K	0.0804
in THF, 313.15 K	0.0815
in THF, 318.15 K	0.0827
in THF, 323.15 K	0.0842
in acetone, 278.15 K	0.00321
in acetone, 283.15 K	0.00347
in acetone, 288.65 K	0.00365
in acetone, 293.15 K	0.0038
in acetone, 298.15 K	0.00414
in acetone, 303.15 K	0.00438
in acetone, 308.15 K	0.00468
in acetone, 313.15 K	0.00495
in acetone, 318.15 K	0.00543
in acetone, 323.15 K	0.00598
in ethanol, 278.15 K	0.0106
in ethanol, 283.15 K	0.0112
in ethanol, 288.65 K	0.0125
in ethanol, 293.15 K	0.0132
in ethanol, 298.15 K	0.0138
in ethanol, 303.15 K	0.0143
in ethanol, 308.15 K	0.0148
in ethanol, 313.15 K	0.0152
in ethanol, 318.15 K	0.0158
in ethanol, 323.15 K	0.0168
in isobutyl acetate, 278.15 K	0.00229
in isobutyl acetate, 283.15 K	0.00232
in isobutyl acetate, 288.15 K	0.00239
in isobutyl acetate, 293.15 K	0.00242
in isobutyl acetate, 298.15 K	0.00247
in isobutyl acetate, 303.15 K	0.00256
in isobutyl acetate, 308.15 K	0.00273
in isobutyl acetate, 313.15 K	0.00278
in isobutyl acetate, 318.15 K	0.00288
in isobutyl acetate, 323.15 K	0.00314
in isopropanol, 278.15 K	0.00857
in isopropanol, 283.15 K	0.00946
in isopropanol, 288.65 K	0.0114
in isopropanol, 293.15 K	0.012
in isopropanol, 298.15 K	0.0129
in isopropanol, 303.15 K	0.0139
in isopropanol, 308.15 K	0.0149
in isopropanol, 313.15 K	0.0156
in isopropanol, 318.15 K	0.0164
in isopropanol, 323.15 K	0.0174
in methanol, 278.15 K	0.00229
in methanol, 283.15 K	0.00257
in methanol, 288.65 K	0.00295
in methanol, 293.15 K	0.00329
in methanol, 298.15 K	0.00373
in methanol, 303.15 K	0.00427
in methanol, 308.15 K	0.00486
in methanol, 313.15 K	0.00562
in methanol, 318.15 K	0.00675
in methanol, 323.15 K	0.00755
in methyl acetate, 278.15 K	0.00182
in methyl acetate, 283.15 K	0.00196
in methyl acetate, 288.15 K	0.00203
in methyl acetate, 293.15 K	0.00227
in methyl acetate, 298.15 K	0.00244
in methyl acetate, 303.15 K	0.00259
in methyl acetate, 308.15 K	0.0027
in methyl acetate, 313.15 K	0.00293
in methyl acetate, 318.15 K	0.00319
in methyl acetate, 323.15 K	0.0034
in n-butyl acetate, 278.15 K	0.00286
in n-butyl acetate, 283.15 K	0.00297
in n-butyl acetate, 288.15 K	0.00315
in n-butyl acetate, 293.15 K	0.00327
in n-butyl acetate, 298.15 K	0.00333
in n-butyl acetate, 303.15 K	0.00344
in n-butyl acetate, 308.15 K	0.0035
in n-butyl acetate, 313.15 K	0.00354
in n-butyl acetate, 318.15 K	0.00359
in n-butyl acetate, 323.15 K	0.00364
in n-propanol, 278.15 K	0.0131
in n-propanol, 283.15 K	0.0146
in n-propanol, 288.65 K	0.016
in n-propanol, 293.15 K	0.0174
in n-propanol, 298.15 K	0.0186
in n-propanol, 303.15 K	0.0194
in n-propanol, 308.15 K	0.0206
in n-propanol, 313.15 K	0.0218
in n-propanol, 318.15 K	0.0223
in n-propanol, 323.15 K	0.023
in n-propyl acetate, 278.15 K	0.00157
in n-propyl acetate, 283.15 K	0.00176
in n-propyl acetate, 288.15 K	0.00193
in n-propyl acetate, 293.15 K	0.00211
in n-propyl acetate, 298.15 K	0.00232
in n-propyl acetate, 303.15 K	0.00245
in n-propyl acetate, 308.15 K	0.00261
in n-propyl acetate, 313.15 K	0.00273
in n-propyl acetate, 318.15 K	0.00284
in n-propyl acetate, 323.15 K	0.00295
